Values quoted from earlier work as cited in publication PMC2990605 (British Journal of Cancer, 2010).

Legend:
[1] = tested on: human promyelocytic leukaemia cell line HL-60; parameters: method as in Krige et al, 2008; conditions: ref Krige et al, 2008; cited from earlier work
cancer cell lines = tested on: cancer cell lines; parameters: method as in Jenkins et al, 2007; Moore et al, 2009; conditions: wide range of cancer cell lines in vitro; ref Jenkins et al, 2007; Moore et al, 2009; cited from earlier work
transformed cells = tested on: transformed cells; parameters: method as in Krige et al, 2008; conditions: in vitro and in vivo experiments; ref Krige et al, 2008; cited from earlier work
[2] = cited from earlier work

For `CC(C)C[C@@H](C(=O)N[C@H](C(=O)OC1CCCC1)c1ccccc1)[C@H](O)C(=O)NO` [tosedostat], which “gene expression analysis, transcriptional response” value [1] is on record?
Its value is “transcriptional response to the drug indicative of amino acid depletion”.

And the “phosphorylation of mTOR substrates” value [1]?
Its value is “inhibited”.

And the protein synthesis [1]?
Its protein synthesis is “reduced”.

And the “combination with chemotherapeutic agents, antiproliferative effects” value (cancer cell lines)?
Its value is “synergises”.

And the selectivity (transformed cells)?
The selectivity was “selectivity for transformed over nontransformed cells”.

What about the effect on platelets ([2]; single agent dose escalation studies, ref Ossenkoppele et al, 2009, Reid et al) of the same compound?
Its effect on platelets is “platelet suppressive effect”.

And the “most commonly reported AEs” value ([2]; single agent oral daily dosing, ref Reid et al, 2009)?
The value was “fatigue, thrombocytopenia, peripheral oedema and diarrhoea”.

And the “Dose-limiting toxicities, patients” value ([2]; single agent tosedostat 320 mg, ref Reid et al, 2009)?
Its value is “two of four patients”.

What about the “MTD with single agent tosedostat” value ([2]; solid tumour patients treated for at least 28 days, oral daily, ref Reid et al, 2009) of the same compound?
Its value is 240 mg.
